Laboratory results as given in patent US20130217085A1, “METHODS FOR IMPROVING FERMENTATION YIELD OF POLYUNSATURATED FATTY ACIDS” (NANJING UNIVERSITY OF TECHNOLOGY, priority 2010, published 2013).

System: Schizochytrium limacinum HX-308
Experiment: Shake-flask fermentation of Schizochytrium limacinum HX-308 with exogenous compatible solute added to the fermentation medium (fatty acid composition, DHA yield, biomass)
Format: cell-based
Excerpt: The detection method of the following Examples is the same as that in the application titled “Schizochytrium limacinum and method of production of DHA oil using the same” (Application No. 200910033869.5) The strain is Schizochytrium limacinum HX-308 with deposit number CCTCC No. M209059. Seed medium: D-glucose 40 g/L, yeast extract 2 g/L, sodium glutamate 10 g/L, MgCl2 3 g/L, CaCl2·2H2O 1 g/L, KH2PO4 4 g/L, KCl 2 g/L, NaCl 15 g/L, MgSO4·7H2O 5 g/L, FeCl3 0.1 g/L. (See “A Schizochytrium limacinum and method of production of DHA oil using the same” (Application No. 200910033869.5)). Fermentation medium: D-glucose 40 g/L, yeast extract 2 g/L, sodium glutamate 10 g/L, MgCl2 3 g/L, (NH4)2SO4 6 g/L, KH2PO4 4 g/L, KCl 2 g/L, NaCl 15 g/L, MgSO4·7H2O 5 g/L, FeCl3 0.1 g/L. (See “A Schizochytrium limacinum and method of production of DHA oil using the same” (Application No. 200910033869.5)). Cultural method: strain was inoculated into seed medium with inoculation amount of 5% (v/v), cultured in a 500 mL shake flask for 24 h to log phase under 170 r at 25° C., and inoculated into the fermentation medium with addition of a certain amount of glycine betaine (such as 10 mmol/L, 40 mmol/L, 70 mmol/L, 100 mmol/L) in inoculation amount of 9% (v/v) for culturing; fermentation ceased when glucose reached an amount of 0 g/L. The results are shown in Table 1. The strain is Schizochytrium limacinum HX-308 with deposit number CCTCC No. M209059. Seed medium: D-glucose 40 g/L, yeast extract 2 g/L, sodium glutamate 10 g/L, MgCl2 3 g/L, CaCl2·2H2O 1 g/L, KH2PO4 4 g/L, KCl 2 g/L, NaCl 15 g/L, MgSO4·7H2O 5 g/L, FeCl3 0.1 g/L. Fermentation medium: D-glucose 40 g/L, yeast extract 2 g/L, sodium glutamate 10 g/L, MgCl2 3 g/L, (NH4)2SO4 6 g/L, KH2PO4 4 g/L, KCl 2 g/L, NaCl 15 g/L, MgSO4·7H2O 5 g/L, FeCl3 0.1 g/L. Cultural method: the strain was inoculated into seed medium with inoculation amount of 5% (v/v), cultured in a 500 mL shake flask for 24 h to log phase under 170 r at 25° C., and inoculated into the fermentation medium with addition of a certain amount of trehalose (such as 10 mmol/L, 40 mmol/L, 80 mmol/L) in inoculation amount of 9% (v/v); fermentation ceased when glucose reached an amount of 0 g/L. The results are shown in Table 2.

[1] = exogenous glycine betaine 10 mM
[2] = exogenous glycine betaine 40 mM
[3] = exogenous glycine betaine 70 mM
[4] = exogenous glycine betaine 100 mM
[5] = exogenous glycine betaine 200 mM

## C[N+](C)(C)CC(=O)[O-] [glycine betaine]
After treatment with exogenous glycine betaine, concentration not given, increased from 0.8%
  mass percentage of squalene: 1.7%
After treatment with exogenous glycine betaine, concentration not given, increased from 3.9 g/L
  DHA yield: 5.0 g/L
After treatment with exogenous glycine betaine, concentration not given, increased from 8.8 g/L
  Total fatty acid yield: 10 g/L
After treatment with exogenous glycine betaine, concentration not given, increased from 11.9%
  mass percentage of DPA in total fatty acids: 16.2%
After treatment with exogenous glycine betaine, concentration not given, increased from 44.1%
  mass percentage of DHA in total fatty acids: 49.8%
After treatment with exogenous glycine betaine, concentration not given, increased from 57
  ratio of DHA in the total biomass: 72 mg/g
After treatment with exogenous glycine betaine, concentration not given, reduced from 10.0%
  mass percentage of saturated fatty acid C14: 0 in total fatty acid: 5.1%
After treatment with exogenous glycine betaine, concentration not given, reduced from 24.4%
  mass percentage of saturated fatty acid C16: 0 in total fatty acid: 20%
After treatment with exogenous glycine betaine, versus no addition
  increase of DHA yield: 28%
[1]
  ARA (% total fatty acids): 0.5 % total fatty acids
  Biomass: 69 g/L
  C14:0 (% total fatty acids): 7.1 % total fatty acids
  C16:0 (% total fatty acids): 21.5 % total fatty acids
  DHA (% total fatty acids): 47.8 % total fatty acids
  DHA (mg/g biomass): 60.5 mg/g biomass
  DHA yield: 4.2 g/L
  DPA (% total fatty acids): 14.5 % total fatty acids
  EPA (% total fatty acids): 1.2 % total fatty acids
  Others (% total fatty acids): 6.2 % total fatty acids
  Squalene (% total fatty acids): 1.2 % total fatty acids
  Total fatty acid yield: 8.8 g/L
[2]
  ARA (% total fatty acids): 0.6 % total fatty acids
  Biomass: 69 g/L
  C14:0 (% total fatty acids): 5.1 % total fatty acids
  C16:0 (% total fatty acids): 19.9 % total fatty acids
  DHA (% total fatty acids): 49.8 % total fatty acids
  DHA (mg/g biomass): 72.2 mg/g biomass
  DHA yield: 5 g/L
  DPA (% total fatty acids): 16.2 % total fatty acids
  EPA (% total fatty acids): 1.6 % total fatty acids
  Others (% total fatty acids): 5.1 % total fatty acids
  Squalene (% total fatty acids): 1.7 % total fatty acids
  Total fatty acid yield: 10 g/L
[3]
  ARA (% total fatty acids): 0.8 % total fatty acids
  Biomass: 70 g/L
  C14:0 (% total fatty acids): 5.1 % total fatty acids
  C16:0 (% total fatty acids): 19.5 % total fatty acids
  DHA (% total fatty acids): 49.0 % total fatty acids
  DHA (mg/g biomass): 67.1 mg/g biomass
  DHA yield: 4.7 g/L
  DPA (% total fatty acids): 16.0 % total fatty acids
  EPA (% total fatty acids): 2.0 % total fatty acids
  Others (% total fatty acids): 5.6 % total fatty acids
  Squalene (% total fatty acids): 2.0 % total fatty acids
  Total fatty acid yield: 9.6 g/L
[4]
  ARA (% total fatty acids): 0.9 % total fatty acids
  Biomass: 70 g/L
  C14:0 (% total fatty acids): 5.2 % total fatty acids
  C16:0 (% total fatty acids): 19.0 % total fatty acids
  DHA (% total fatty acids): 48.1 % total fatty acids
  DHA (mg/g biomass): 61.14 mg/g biomass
  DHA yield: 4.3 g/L
  DPA (% total fatty acids): 15.8 % total fatty acids
  EPA (% total fatty acids): 2.6 % total fatty acids
  Others (% total fatty acids): 6.1 % total fatty acids
  Squalene (% total fatty acids): 2.3 % total fatty acids
  Total fatty acid yield: 8.9 g/L
[5]
  Biomass: 85 g/L
  C14:0 (% total fatty acids): 2.3 % total fatty acids
  C16:0 (% total fatty acids): 10.9 % total fatty acids
  DHA (% total fatty acids): 34.9 % total fatty acids
  DHA (mg/g biomass): 27 mg/g biomass
  DHA yield: 2.3 g/L
  DPA (% total fatty acids): 10.5 % total fatty acids
  EPA (% total fatty acids): 8.6 % total fatty acids
  Others (% total fatty acids): 30.9 % total fatty acids
  Squalene (% total fatty acids): 1.9 % total fatty acids
  Total fatty acid yield: 6.6 g/L
